Test results from US11679097B2, “Combination product containing limonoid compound and biguanide compound” (ZHEJIANG YANGSHENGTANG INSTITUTE OF NATURAL MEDICATION CO., …, priority 2017, dated 2023).

Legend:
Format in all cases: in vivo
STZ mice [1] = test: Blood glucose in mouse pancreatic islet β-cell injury model (Example 1); settings: STZ ICR mice; single administration 0.02 g/kg per day by gavage, two weeks; 1 h after last administration
Excerpt: Effects of a Limonoid Compound, Metformin or a Combination Thereof on Blood Glucose in a Mouse Pancreatic Islet β-Cell Injury Model In this example, a mouse pancreatic islet β-cell injury model was established by modeling ICR mice with streptozotocin (STZ) (referred to the prior art literature: Li Nan et al., Protective effect of pine pollen on kidney damage in diabetic nephropathy mice, Science and Technology Review, 2014, 32 (4/5): 95-99), and used to complete the evaluation of hypoglycemic effect in animals (this model could simulate pancreatic islet β-cell damage state of type I and type II diabetics). […] Conditions of experimental feeding: ICR mice (20±2 g), aged 6 weeks, purchased from Zhejiang Academy of Medical Sciences, and subjected to experimental feeding after 7 days of preliminary feeding. […] The experimental feed was mouse growth-stable feed (GB […]), and the daily feeding and management of the animals were under the responsibility of the animal security department, which provided the animals with sufficient padding and fresh drinking water daily. Experimental grouping: 15 male mice were randomly selected as the normal control group. […] Gavage doses: the gavage dose was 0.02 g/kg per day for the limonin group, the gavage dose was 0.02 g/kg per day for the isolimonic acid group, the gavage dose was 0.02 g/kg per day for the limonin 17-β-D-glucopyranoside group, the gavage dose of metformin was 0.02 g/kg per day for the metformin group, limonin at a dose of 0.01 g/kg and metformin at a dose of 0.01 g/kg were simultaneously gavaged per day for the limonin/metformin combination group, isolimonic acid at a dose of 0.01 g/kg and metformin at a dose of 0.01 g/kg were simultaneously gavaged per day for the isolimonic acid/metformin combination group, limonin 17-β-D-glucopyranoside at a dose of 0.01 g/kg and metformin at a dose of 0.01 g/kg were simultaneously gavaged per day for the limonin 17-β-D-glucopyranoside/metformin combination group, isolimonic acid 17-β-D-glucopyranoside at a dose of 0.01 g/kg and metformin at a dose of 0.01 g/kg were simultaneously gavaged per day for the isolimonic acid 17-β-D-glucopyranoside/metformin combination group, the gavage volume was 10 mL/kg, and the normal group and the model group were administrated with 10 mL/kg of distilled water. […] SPSS 16.0 software was used for statistical analysis. The data were expressed as mean and standard deviation. The data before and after were analyzed by t-test, and P<0.05 was considered statistically significant.

db/db mice = test: Blood glucose and leptin in mouse model of type II diabetes (Example 2); settings: single administration 0.04 g/kg per day by gavage, two weeks
Excerpt: Effects of a Limonoid Compound, Metformin or a Combination Thereof on Blood Glucose and Leptin in a Mouse Model of Type II Diabetes In the present example, db/db mice (line name BKS.Cg-Dock7^m+/+ Lepr^db/Nju) were used to perform hypoglycemic efficacy evaluation test of animals (blood glucose level and leptin). […] Conditions for experimental feeding: as type II diabetes model mice, 6-week-old SPF-grade db/db mice were purchased from the Nanjing Model Biology Institute, and subjected to experimental feeding after 7 days of preliminary feeding. […] The experimental feed was mouse growth-stable feed (GB […]), and the daily feeding and management of the animals were under the responsibility of the animal security department, which provided the animals with sufficient padding and fresh drinking water daily. Experimental grouping: male db/db mice (20±2 g) were selected, and 18 male mice in each group were tested. […] Gavage doses: obacunone at a dose of 0.04 g/kg was gavaged per day for the obacunone group, isoobacunoic acid at a dose of 0.04 g/kg was gavaged per day for the isoobacunoic acid group, obacunone 17-β-D-glucopynoside at a dose of 0.04 g/kg was gavaged per day for the obacunone 17-β-D-glucopynoside group, metformin at a dose of 0.04 g/kg was gavaged per day for the metformin group, obacunone at a dose of 0.02 g/kg and metformin at a dose of 0.02 g/kg were simultaneously gavaged per day for the obacunone/metformin combination group, isoobacunoic acid at a dose of 0.02 g/kg and metformin at a dose of 0.02 g/kg were simultaneously gavaged per day for the isoobacunoic acid/metformin combination group, obacunone 17-β-D-glucopynoside at a dose of 0.02 g/kg and metformin at a dose of 0.02 g/kg were simultaneously gavaged per day for the obacunone 17-β-D-glucopynoside/metformin combination group, the gavage volume was 10 mL/kg, and the normal group and the model group were administrated with 10 mL/kg of distilled water. […] The data were expressed as mean and standard deviation. The data before and after were analyzed by t-test, and P<0.05 was considered statistically significant.

STZ mice [2] = test: Blood glucose in mouse model of type II diabetes with pancreatic islet damage and obesity (Example 5); settings: high-fat diet + STZ ICR mice; single administration 0.5 g/kg per day by gavage, three weeks
Description: It should be noted that the conditions for raising the mice were as follows: the temperature was 23±1° C., the humidity was 55±10%, the lights were turned on between 7 am and 7 pm (the lights were turned off at other time), and the mice were allowed to access to water and feed freely. The experimental feed was mouse growth-stable feed (GB M2118), and the daily feeding and management of the animals were under the responsibility of the animal security department, which provided the animals with sufficient padding and fresh drinking water daily.
SPSS 16.0 software was used for statistical analysis.

CN(C)C(=N)NC(=N)N [Metformin, N,N-dimethylimidodicarbonimidic diamide, reference compound]
Blood glucose value (STZ mice [1]): 22.6 ± 3.9 mmol/L | Leptin (db/db mice; serum, Elisa): 34.49 ± 3.38 pg/mL | Blood glucose value (db/db mice; 1 h after last administration): 15.5 ± 3.6 mmol/L | Blood glucose value (STZ mice [2]): 17.9 ± 3.6 mmol/L
